“And” between values parts separate entries of the source, which are not always exact repeats. Equal entries are not always repeated.
Experiments:
Assay type in all cases: biochemical
[1] = DPPH· scavenging; details: mean ± SD, n = 3;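 note: colourimetric DPPH radical scavenging in 96-well plates, absorbance read-out, percent inhibition relative to ethanol control absorbance, IC50 derived graphically from dose-inhibition curves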
[2] = ABTS·+ decolourisation capacity; details: for ABTS scavenging rate: 0.5mM series, replicate wells, listed as T21; for IC50: mean ± SD, n = 3
Protocol: Fast colourimetric methods were slightly modified for the in vitro assessment of DPPH· scavenging ([19]), ABTS·+ decolourisation capacity ([20]), and total antioxidant capacity of FRAP ([21]). The stock solutions of derivatisation reagents were diluted as follows before measurement: DPPH was diluted with absolute ethanol until the absorbance was 0.8 ± 0.05 at λ = 517 nm. ABTS working solution was prepared with phosphate buffer (0.2 M, pH 7.4) to display absorbance of 0.8 ± 0.05 at λ = 729 nm, based on a previous study ([22]). The FRAP solution was prepared according to the instructions of the FRAP kit. Absorbances were measured using an automatic microplate reader (Molecular Group Ltd., USA), and all analyses were performed using 96-well plates. All measurements were performed in triplicate, and Trolox was used as a positive control.
For ABTS·+ decolourisation capacity, 100 μl of ABTS working solution was mixed with 200 μl of sample solution, and the absorbance was recorded after 10 min at 729 nm. Phosphate buffer (0.2 M, pH 7.4) was used as a negative control.
DPPH· and ABTS·+ radical scavenging activities of the tested sample were both calculated using the following formula:
% inhibition = (A control − A sample)/A control × 100
Where A control and A sample represent the absorbance of the control and test samples, respectively. The IC50 was calculated graphically from the dose-inhibition curves.

[3] = FRAP total antioxidant capacity; details: lower part of sheet (compound series);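 note: colourimetric FRAP kit assay read as absorbance in 96-well plates, values as mM FeSO4 via standard curve, EC1 being sample concentration matching 1.0 mmol/L FeSO4, Trolox positive control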
[4] = molecular target: T1, COX-2 (Homo sapiens, UniProt P35354); experiment: Anti-COX-2 assay (COX-2 Inhibitor Screening Kit); details: for COX-2 inhibition: single replicates
T1 construct: purchased Beyotime S0168
T1 sequence (P35354 18-604): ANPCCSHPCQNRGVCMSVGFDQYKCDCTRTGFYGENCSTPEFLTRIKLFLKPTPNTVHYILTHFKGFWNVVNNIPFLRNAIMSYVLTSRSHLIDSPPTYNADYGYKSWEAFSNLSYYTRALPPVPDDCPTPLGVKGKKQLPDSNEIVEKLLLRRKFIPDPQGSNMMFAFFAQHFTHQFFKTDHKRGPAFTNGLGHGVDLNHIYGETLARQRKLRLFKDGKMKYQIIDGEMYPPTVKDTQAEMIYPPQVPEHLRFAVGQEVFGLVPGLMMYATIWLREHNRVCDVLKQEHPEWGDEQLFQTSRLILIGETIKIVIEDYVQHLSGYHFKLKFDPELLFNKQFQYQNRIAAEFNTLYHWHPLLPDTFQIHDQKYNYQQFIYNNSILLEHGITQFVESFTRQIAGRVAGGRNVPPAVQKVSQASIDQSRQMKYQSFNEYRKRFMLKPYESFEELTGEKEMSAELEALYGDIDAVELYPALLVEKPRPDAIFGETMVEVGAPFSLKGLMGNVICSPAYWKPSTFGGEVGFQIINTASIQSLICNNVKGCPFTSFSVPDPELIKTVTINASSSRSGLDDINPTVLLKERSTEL

[5] = Fluorescent AGEs formation in a BSA-fructose/glucose system; details: for inhibition of fluorescent AGEs formation (BSA-抗糖化), single replicate: individual replicate; for inhibition of fluorescent AGEs formation (BSA-抗糖化), 平均 (mean): mean of 3 replicates
Protocol: Glycated protein was prepared in vitro by incubating BSA in the presence of D-glucose (GLC) and D-fructose (FRC). The DOF extract and specific standards were dissolved in DMSO:water (1:4). […] The assay was performed in triplicate, and AG was used as a positive control. The percentage inhibition of fluorescent AGE formation was calculated using the following equation: […] Where IF sample is fluorescence intensity in the presence of samples and BSA, IF sample control is fluorescence intensity in the presence of samples without BSA, IF control is fluorescence intensity without samples, and IF blank control is fluorescence intensity without samples and BSA.

[6] = mean ± SD, n = 3, read-out: BSA-glycation IC50

Neoschaftoside [compound 21]
IC50 [1]: > 5000 µM
ABTS scavenging rate ([2]; concentration 15.625 (unit not given)): 37.92% and 38.74% and 38.24%
ABTS scavenging rate ([2]; concentration 31.25 (unit not given)): 60.76% and 61.20% and 60.99%
ABTS scavenging rate ([2]; concentration 62.5 (unit not given)): 81.08% and 80.87% and 80.62%
ABTS scavenging rate ([2]; concentration 125 (unit not given)): 92.61% and 92.60% and 92.36%
ABTS scavenging rate ([2]; concentration 250 (unit not given)): 98.02% (2×) and 98.07%
ABTS scavenging rate ([2]; concentration 500 (unit not given)): 99.70% and 99.73% and 99.67%
IC50 [2]: 21.4 ± 0.24 µM
FRAP EC1 [3]: >5000 µM
COX-2 inhibition (in words) [4]: no inhibitory effects
COX-2 inhibition ([4]; 31.25 μM, listed as T21, 31.25 µM): -6.16% and -4.80% and 6.61%
COX-2 inhibition ([4]; 62.5 μM, listed as T21, 62.5 µM): 6.28% and 7.65% and 11.30%
COX-2 inhibition ([4]; 125 μM, listed as T21, 125 µM): 1.19% and -2.74% and 1.96%
COX-2 inhibition ([4]; 250 μM, listed as T21, 250 µM): 3.95% and 0.81% and 18.87%
COX-2 inhibition ([4]; 500 μM, listed as T21, 500 µM): -4.13% and -1.62% and 4.93%
COX-2 inhibition ([4]; 1000 μM, listed as T21, 1000 µM): -1.41% and 2.18% and 12.07%
COX-2 inhibition ([4]; 2000 μM (2mM), listed as T21): 51.51% and 49.86% and 47.92%
inhibition of fluorescent AGEs formation (BSA-抗糖化), single replicate ([5]; 15.625 µM): 0.054% and 0.23% and 1.18%
inhibition of fluorescent AGEs formation (BSA-抗糖化), 平均 (mean) ([5]; 15.625 µM): 0.49%
inhibition of fluorescent AGEs formation (BSA-抗糖化), single replicate ([5]; 31.25 µM): 5.09% and 4.69% and 3.66%
inhibition of fluorescent AGEs formation (BSA-抗糖化), 平均 (mean) ([5]; 31.25 µM): 4.48%
inhibition of fluorescent AGEs formation (BSA-抗糖化), single replicate ([5]; 62.5 µM): 7.25% and 9.67% and 10.17%
inhibition of fluorescent AGEs formation (BSA-抗糖化), 平均 (mean) ([5]; 62.5 µM): 9.03%
inhibition of fluorescent AGEs formation (BSA-抗糖化), single replicate ([5]; 125 µM): 20.04% and 20.34% and 19.73%
inhibition of fluorescent AGEs formation (BSA-抗糖化), 平均 (mean) ([5]; 125 µM): 20.04%
inhibition of fluorescent AGEs formation (BSA-抗糖化), single replicate ([5]; 250 µM): 36.81% and 35.45% and 36.08%
inhibition of fluorescent AGEs formation (BSA-抗糖化), 平均 (mean) ([5]; 250 µM): 36.11%
inhibition of fluorescent AGEs formation (BSA-抗糖化), single replicate ([5]; 500 µM): 54.95% and 55.05% and 56.69%
inhibition of fluorescent AGEs formation (BSA-抗糖化), 平均 (mean) ([5]; 500 µM): 55.56%
inhibition of fluorescent AGEs formation (BSA-抗糖化), single replicate ([5]; 1000 µM): 71.70% (2×) and 72.55%
inhibition of fluorescent AGEs formation (BSA-抗糖化), 平均 (mean) ([5]; 1000 µM): 71.98%
inhibition of fluorescent AGEs formation (BSA-抗糖化), single replicate ([5]; 2000 µM): 83.42% and 82.90% and 83.96%
inhibition of fluorescent AGEs formation (BSA-抗糖化), 平均 (mean) ([5]; 2000 µM): 83.43%
inhibition of fluorescent AGEs formation (BSA-抗糖化), single replicate ([5]; 4000 µM (series head 'T9 4000µM', 2-fold dilutions)): 91.13% and 89.60% and 90.19%
inhibition of fluorescent AGEs formation (BSA-抗糖化), 平均 (mean) ([5]; 4000 µM): 90.31%
IC50 ([5]; BSA anti-glycation, IC50 of each of 3 replicates, read-out: IC50, single replicate curve): 432 µM and 437 µM and 421 µM
IC50 [5, 6]: 430 ± 8 µM

O=c1cc(-c2ccc(O)cc2)oc2c(C3OC(CO)C(O)C(O)C3O)c(O)c(C3OCC(O)C(O)C3O)c(O)c12 (stereo not shown) [compound 14, Vicenin-1]
IC50 [1]: > 5000 µM
IC50 [2]: 96.4 ± 2.11 µM
FRAP EC1 [3]: >5000 µM
COX-2 inhibition ([4]; 31.25 μM, listed as T6, 31.25 µM): -4.26%
COX-2 inhibition ([4]; 62.5 μM, listed as T6, 62.5 µM): -25.49% and -4.46%
COX-2 inhibition ([4]; 125 μM, listed as T6, 125 µM): -10.40%
COX-2 inhibition ([4]; 500 μM, listed as T6, 500 µM): -29.71% and -20.21%
COX-2 inhibition ([4]; 1000 μM, listed as T6, 1000 µM): -42.43% and -38.19%
IC50 [5, 6]: 256 ± 5.44 µM

O=c1c(O[C@@H]2O[C@H](CO)[C@@H](O)[C@H](O)[C@H]2O)c(-c2ccc(O)cc2)oc2cc(O)cc(O)c12 [compound 31, Astragalin]
IC50 [1]: > 5000 µM
IC50 [2]: 34.31 ± 0.1 µM
FRAP EC1 [3]: >5000 µM
COX-2 inhibition (in words) [4]: no inhibitory effects
COX-2 inhibition ([4]; 3.125 μM, listed as T13, 3.125 µM): 9.26% and 13.01% and -4.90%
COX-2 inhibition ([4]; 6.25 μM, listed as T13, 6.25 µM): 7.55% and 7.65% and -2.11%
COX-2 inhibition ([4]; 12.5 μM, listed as T13, 12.5 µM): 5.53% and -11.45% and -30.89%
COX-2 inhibition ([4]; 25 μM, listed as T13, 25 µM): -6.59% and -8.12% and -23.58%
COX-2 inhibition ([4]; 50 μM, listed as T13, 50 µM): -22.46% and -22.25% and -29.37%
COX-2 inhibition ([4]; 100 μM, listed as T13, 100 µM): -33.58% and -17.93% and -41.32%
COX-2 inhibition ([4]; 200 μM, listed as T13, 200 µM): -24.47% and -35.20% and -49.99%
inhibition of fluorescent AGEs formation (BSA-抗糖化), single replicate ([5]; 15.625 µM, listed as T13, 15.625 µM): 3.97% and 2.43% and 3.28%
inhibition of fluorescent AGEs formation (BSA-抗糖化), 平均 (mean) ([5]; 15.625 µM): 3.23%
inhibition of fluorescent AGEs formation (BSA-抗糖化), single replicate ([5]; 31.25 µM, listed as T13, 31.25 µM): 6.47% and 9.23% and 6.65%
inhibition of fluorescent AGEs formation (BSA-抗糖化), 平均 (mean) ([5]; 31.25 µM): 7.45%
inhibition of fluorescent AGEs formation (BSA-抗糖化), single replicate ([5]; 62.5 µM, listed as T13, 62.5 µM): 16.61% and 18.46% and 18.15%
inhibition of fluorescent AGEs formation (BSA-抗糖化), 平均 (mean) ([5]; 62.5 µM): 17.74%
inhibition of fluorescent AGEs formation (BSA-抗糖化), single replicate ([5]; 125 µM, listed as T13, 125 µM): 25.98% and 33.83% and 29.94%
inhibition of fluorescent AGEs formation (BSA-抗糖化), 平均 (mean) ([5]; 125 µM): 29.92%
inhibition of fluorescent AGEs formation (BSA-抗糖化), single replicate ([5]; 250 µM, listed as T13, 250 µM): 39.66% and 53.40% and 48.31%
inhibition of fluorescent AGEs formation (BSA-抗糖化), 平均 (mean) ([5]; 250 µM): 47.12%
inhibition of fluorescent AGEs formation (BSA-抗糖化), single replicate ([5]; 500 µM, listed as T13, 500 µM): 65.95% and 67.35% and 67.23%
inhibition of fluorescent AGEs formation (BSA-抗糖化), 平均 (mean) ([5]; 500 µM): 66.84%
inhibition of fluorescent AGEs formation (BSA-抗糖化), single replicate ([5]; 1000 µM, listed as T13, 1000 µM): 79.55% and 78.97% and 78.39%
inhibition of fluorescent AGEs formation (BSA-抗糖化), 平均 (mean) ([5]; 1000 µM): 78.97%
inhibition of fluorescent AGEs formation (BSA-抗糖化), single replicate ([5]; 2000 µM, listed as T13, 2000 µM): 89.49% and 89.99% and 89.93%
inhibition of fluorescent AGEs formation (BSA-抗糖化), 平均 (mean) ([5]; 2000 µM): 89.80%
inhibition of fluorescent AGEs formation (BSA-抗糖化), single replicate ([5]; 4000 µM (series head 'T9 4000µM', 2-fold dilutions), listed as T13): 94.89% and 93.91% and 94.80%
inhibition of fluorescent AGEs formation (BSA-抗糖化), 平均 (mean) ([5]; 4000 µM): 94.53%
IC50 [5, 6]: 276 ± 33 µM

— publication PMC10064984, “Anti-cyclooxygenase, anti-glycation, and anti-skin aging effect of Dendrobium officinale flowers’ aqueous extract and its phytochemical validation in aging” (Frontiers in Immunology, 2023)
